In experiment [1] the target is T1, PtmO5 (Streptomyces platensis, UniProt D8L2V0).
T1 sequence (D8L2V0 1-430): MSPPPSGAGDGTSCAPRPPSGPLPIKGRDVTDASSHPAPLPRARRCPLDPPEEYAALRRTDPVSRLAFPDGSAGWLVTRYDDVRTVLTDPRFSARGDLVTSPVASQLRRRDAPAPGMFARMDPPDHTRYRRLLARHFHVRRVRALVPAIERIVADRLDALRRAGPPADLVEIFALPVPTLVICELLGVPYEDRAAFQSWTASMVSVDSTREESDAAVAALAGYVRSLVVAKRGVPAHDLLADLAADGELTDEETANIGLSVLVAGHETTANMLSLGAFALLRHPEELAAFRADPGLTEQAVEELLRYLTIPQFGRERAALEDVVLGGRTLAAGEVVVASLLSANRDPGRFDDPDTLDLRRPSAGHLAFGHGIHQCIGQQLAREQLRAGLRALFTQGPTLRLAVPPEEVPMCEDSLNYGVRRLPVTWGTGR
Put plainly: type I difference spectra titration, nonlinear regression of A390-A422. It is filed as binding. The note with it: 0-5 μM ligand; type I shift 422 to 390 nm; heme site.

The target of experiment [2] is T1, PtmO5. The experiment can be described thus: type I binding spectra. The note with it: heme site, poor solubility of 4.

The structures appear in SMILES notation.

`C[C@@]12CCC[C@@](C)(C(=O)O)[C@H]1CC[C@@]13C[C@@H](CC[C@H]12)[C@](C)(O)C3` [compound 1, (16R)-hydroxy-ent-kauran-19-oic acid]: the Kd in experiment [1] amounted to 860 ± 70 nM. In experiment [2], `C=C1C[C@@]23CC[C@H]4[C@@](C)(CCC[C@@]4(C)C(=O)O)[C@@H]2CC[C@@H]1C3` [compound 4, ent-kaur-16-en-19-oic acid] registered a dissociation constant Kd of 750 ± 190 nM.
